Source: patent publication US12599599B2, “Anti-inflammatory, anti-cancer, and anti-angiogenic compounds, pharmaceutical compositions, and methods of making and using thereof” (MEDICON PHARMACEUTICALS, INC., priority 2017, dated 2026)
pIC50: −log10 of the molar value.

Experiments:
HEY-T30 xenografts = experiment: Synergy with cyclophosphamide, Taxol resistant subcutaneous xenografts; assay type: in vivo, nude mice; details: day 21; compound 5 10 mg/kg/day six days a week ip; cyclophosphamide 10 mg/kg six days a week orally; or both
[1] = Ocular pharmacokinetics and biodistribution after eye drops; assay type: in vivo, New Zealand rabbits; design: unit not given here; details: rabbit, 20% eye drops
Experimental: The pharmacokinetics and biodistribution of compounds 1, 2, and 5 in the eye of rabbits were determined. Each of these compounds was dissolved in phosphate buffered saline (PBS) and used as eye drops. The eye drops were sterilized before application to rabbits by filtration through a 0.2 μm membrane. […] The eyes were harvested and eye tissues and the lacrimal glands were dissected, homogenized and the test compounds were extracted by acetonitrile and analyzed by HPLC, as described under Compound Synthesis described herein. Compounds 1 and 2 were detected at 328 nm, and compound 5 at 260 nm. […] All three compounds can unexpectedly, readily, and rapidly reach the posterior chamber of the eye.

RAW264 murine macrophage = experiment: 24 hr growth inhibition of cell line; assay type: cell-based; details: Mus musculus, RAW264.7, 24 h
Experimental: (§1) The therapeutic efficacy of compounds 2, 5, and 6 was assessed in human and murine cell lines of varied tissue origin, and their 24 hr 50% inhibitory concentration was determined by following standard methodologies. Typical results are shown in the Table 5, indicating a broad anticancer effect.

A549 lung cancer = experiment: 24 hr growth inhibition of cell line; assay type: cell-based; details: Homo sapiens
Experimental: as §1

HCT116 colon cancer = experiment: 24 hr growth inhibition of cell line; assay type: cell-based; details: Homo sapiens, HCT-116, 24 h
Experimental: as §1

AGS gastric cancer = experiment: 24 hr growth inhibition of cell line; assay type: cell-based; details: Homo sapiens
Experimental: as §1

[2] = Biodistribution in human eyes removed from deceased donors; assay type: in vitro ADME; details: human eye, 10% (w/v) solution, then 1 h incubation
Experimental: Compound 6 3% (formulated in polyethylene glycol 155; Tween 80% 1%; Kolliphor EL 10%, made to 100% with normal saline; pH 7.2) was injected iv as a single dose of 30 mg/kg. Its retina levels were 4.9 μM and 1 μM at 1 h and 2 h, respectively (the corresponding sclera levels were similar, 3.2 μM and 2.0 μM). When compound 6 was given ip (in corn oil) as a single dose of 100 mg/kg its retina levels became detectable at 3 h (3.2 μM) and remained at 2.8 μM at 4 h and 6 h. Similarly, after its single topical administration, compound 6 3% (formulated in vitamin E TPGS 16%, mannitol 3.2% boric acid 1.2% and polyquad 0.005%, pH 7.2) produced retinal levels of 2.1 μM at 4 h. The biodistribution of compound 2 in human eyes that were recently removed from deceased donors and kept on ice until used within hours was also evaluated. In this study, compound 2 was dissolved in pure water, its pH was adjusted to 4.8±0.1 and its osmolarity to 290 mOsm. The final concentration of compound 2 was 10% (w/v).
The anterior surface of each was brought into contact with the above solution of compound 2 at 37° C.; the solution level was about 3 mm above the cornea edge. After 1 minute or 10 minutes the eyes were rinsed thoroughly with PBS, incubated for 1 h, and dissected to harvest the retina, choroid, aqueous humor, ciliary body, iris and cornea, which ere assayed by HPLC. As shown in the below table, compound 2 did reach the posterior segment of the eye.

[3] = tested on: oxygen-induced retinopathy; experiment: Mouse model of oxygen-induced retinopathy; assay type: in vivo, C57BL/6 mice; details: 10% w/v eye drops 5 times daily, P12 to P17
Experimental: C57BL/6 mice were reared in 75±2% oxygen air starting on postnatal day 7 (P7) and moved into room air on P12, when they were injected intravitreally with 1 μl of 1% compound 6 solution or vehicle. On P17, the pups were euthanized, both eyes were enucleated and fixed with 4% paraformaldehyde (PFA). Following several intermediate steps, the retina was existed and fixed further with 4% PFA overnight. After appropriate washings, the retina was incubated with 10 μg/ml of FITC-conjugated anti-lectin antibody overnight and retina flat-mounts were prepared on glass slides and evaluated by fluorescence microscopy. The areas of the avascular, neovascular and whole retina were determined using ImageJ software.
In another study, the same mouse model of oxygen-induced retinopathy described above was used. In this study, mice were treated daily with an aqueous solution of compound 2 (pH=4.6, osmolarity=282 mOsm; concentration=10% w/v) from postnatal day 12 to day 17. Compound 2 was administered as one eye drop per eye every 2 hours during the day time for a total of 5 administrations daily. At the end of the study, mice were euthanized and their retinas dissected and studied by immunofluorescence using an antibody against lectin I, isolectin B4 (Vector Laboratories) and evaluated as above.

SKOV-3 ovarian cancer = experiment: 24 hr growth inhibition of cell line; assay type: cell-based; details: Homo sapiens, SK-OV-3, 24 h
Experimental: as §1
Ovarian cancer cells were studied in greater detail using the following ovarian cancer cell lines: SKOV-3, OVCAR3, A2780 (and two cell lines derived from it, A2870cis that is resistant to cisplatin, and A2870ADR that is resistant to doxorubicin (Adriamycin)), and HEY (sensitive to paclitaxel (Taxol), and its derivative HEY-T30 that is Taxol-resistant). […]

[4] = tested on: Ras palmitoylation in A2780 and A2780cis ovarian cancer cells; experiment: Ras palmitoylation (resin capture, immunoblot); assay type: cell-based, human
Experimental: FIGS. 18A-18B illustrate the effect of compounds 5 and 6 on K-Ras. FIG. 18A: Compound 6 suppressed of K-Ras activation. Cells with mutant K-Ras were treated with compound 6 1.5×IC50 for the respective time periods. K-Ras activity was determined by Ras pull-down (Thermo Scientific; following vendor instructions). K-Ras activation is suppressed 37% at 1 hr and 88% at 2 hrs compared to respective controls. FIG. 18B: Compound 5 suppressed the palmitoylation of Ras in A2780 and A2780cis (resistant to cisplatin) ovarian cancer cells. Palmitoylation is detected by removing S-palmitate groups from proteins, creating new free thiols (where the palmitic acid group used to be) and capturing the previously S-palmitoylated proteins on a resin, using a commercial kit (Badrilla, Leeds, UK). Ras was detected in the eluate by immunoblot.
This effect may be particularly useful in types of cancer characterized by K-Ras mutation such as, for example, pancreatic, lung and ovarian cancer. FIG. 18A illustrates the inhibition of K-Ras activation by compound 6. […] This property of compound 5 is not shared for example by compound 6 or phosphosulindac.

A2780 xenografts = experiment: Subcutaneous xenografts in nude mice, platinum sensitive; assay type: in vivo; details: compound 5 15 mg/kg/day six days a week ip; cis-platinum 5.5 mg/kg one time a week ip
Experimental: (§2) To determine whether compound 5 is efficacious against chemotherapy-resistant ovarian cancer, three pairs of sensitive and resistant human ovarian cancer cell lines were grown as subcutaneous xenografts in nude mice and treated as summarized in FIG. 10. These cell lines were: A2780, sensitive to both cis-platinum and Adriamycin (doxorubicin); A2780cis, resistant to cis-platinum; A2780ADR, resistant to Adriamycin: HEY, sensitive to Taxol; HEY-T30, resistant to Taxol. The treatments administered were: vehicle control; compound 5, 15 mg/kg/day six days a week, ip; cis-platinum 5.5 mg/kg, one time a week ip; Adriamycin 3 mg/kg twice a week ip; and Taxol 20 mg/kg twice a week ip.

A2780cis xenografts = experiment: Subcutaneous xenografts in nude mice, cisplatin resistant; assay type: in vivo; details: compound 5 15 mg/kg/day six days a week ip; cis-platinum 5.5 mg/kg one time a week ip
Experimental: Compound 6 was also efficacious against chemotherapy-resistant ovarian cancer. […] The effect of compound 6 in cisplatin resistant (A2780cis) and doxorubicin (Adriamycin) resistant (A2780ADR) tumors was studied. Briefly, each of these cell lines was subcutaneously inoculated into athymic nude mice and when the tumor size reached 100-200 mm^3, compound 6 150 mg/kg/day or its vehicle were given i.p. After 11 days of treatment, for the cisplatin-resistant tumors the tumor volume of the vehicle group was 2388±127 mm^3 and for compound 6 group 1032±108 mm^3 (mean±SEM; P<0.02); while for the doxorubicin-resistant tumors these values were: vehicle group=1369±337 mm^3 and compound 6 group=396±182 mm^3 (P<0.02).
as §2

O=P1(N(CCCl)CCCl)NCCCO1 (stereo not drawn) [cyclophosphamide, reference compound]
inhibition of tumor growth compared to control (HEY-T30 xenografts): 23%

CCOP(=O)(NCCN1CCN(C(=O)CC2=C(C)/C(=C/c3ccc([S+](C)[O-])cc3)c3ccc(F)cc32)CC1)OCC (stereo not drawn) [Compound 2]
Drug level in Choroid ([1]; 2 hr): 5.3 | Drug level in Conjunctiva ([1]; 2 hr): 16.1 | Drug level in Cornea ([1]; 2 hr): 106.1 | Drug level in Iris ([1]; 2 hr): 9.9 | Drug level in Lens ([1]; 2 hr): 0.3 | Drug level in Retina ([1]; 2 hr): 4.1 | Drug level in Sclera ([1]; 2 hr): 50.7 | Drug level in Vitreous ([1]; 2 hr): 1.2 | Drug level in Choroid ([1]; 3 hr): 6.4 | Drug level in Conjunctiva ([1]; 3 hr): 13.5 | Drug level in Cornea ([1]; 3 hr): 46.0 | Drug level in Iris ([1]; 3 hr): 9.8 | Drug level in Lens ([1]; 3 hr): 4.0 | Drug level in Retina ([1]; 3 hr): 1.7 | Drug level in Sclera ([1]; 3 hr): 22.4 | pIC50 (RAW264 murine macrophage): 3.80 | pIC50 (A549 lung cancer): 3.40 | pIC50 (HCT116 colon cancer): 3.34 | pIC50 (AGS gastric cancer): 3.51 | level in aqueous humor ([2]; 1 minute exposure): 1.0 µM | level in choroid ([2]; 1 minute exposure): 425.9 µM | level in ciliary body ([2]; 1 minute exposure): 124.6 µM | level in cornea ([2]; 1 minute exposure): 166.3 µM | level in iris ([2]; 1 minute exposure): 43.1 µM | level in retina ([2]; 1 minute exposure): 12.6 µM | level in aqueous humor ([2]; 10 minutes exposure): 5.3 µM | level in choroid ([2]; 10 minutes exposure): 273.5 µM | level in ciliary body ([2]; 10 minutes exposure): 206.9 µM | level in cornea ([2]; 10 minutes exposure): 512.6 µM | level in iris ([2]; 10 minutes exposure): 10.3 µM | level in retina ([2]; 10 minutes exposure): 46.6 µM | avascular area of the retina, percentage of the entire retina surface area (mean±SEM) ([3]; vehicle 16.8±1.1): 5.8±0.8% | neovascular area of the retina, percentage of the entire retina surface area (mean±SEM) ([3]; vehicle 20.7±3.7): 9.9±2.2% | pIC50 (SKOV-3 ovarian cancer): 3.32

CCOP(=O)(OCC)OCCCCOC(=O)CC1=C(C)/C(=C/c2ccc([S+](C)[O-])cc2)c2ccc(F)cc21 (stereo not drawn) [phosphosulindac, reference compound]
suppression of palmitoylation of Ras [4]: not shared

N.N.[Cl][Pt][Cl] [cis-platinum, reference compound]
growth of platinum-sensitive xenografts (A2780 xenografts): suppressed the growth | growth of platinum-resistant xenografts (A2780cis xenografts): failed to significantly inhibit tumor growth

CC1=C(CC(=O)N2CCN(CCNS(C)(=O)=O)CC2)c2cc(F)ccc2/C1=C\c1ccc([S+](C)[O-])cc1 (stereo not drawn) [Compound 1]
Drug level in Choroid ([1]; 1 hr): 4.1 | Drug level in Conjunctiva ([1]; 1 hr): 71.6 | Drug level in Cornea ([1]; 1 hr): 61.8 | Drug level in Iris ([1]; 1 hr): 6.9 | Drug level in Lens ([1]; 1 hr): 20.2 | Drug level in Retina ([1]; 1 hr): 7.5 | Drug level in Sclera ([1]; 1 hr): 10.1 | Drug level in Vitreous ([1]; 1 hr): 0.9 | Drug level in Choroid ([1]; 3 hr): 2.1 | Drug level in Conjunctiva ([1]; 3 hr): 52.5 | Drug level in Cornea ([1]; 3 hr): 16.2 | Drug level in Iris ([1]; 3 hr): 7.6 | Drug level in Lens ([1]; 3 hr): 4.6 | Drug level in Retina ([1]; 3 hr): 1.8 | Drug level in Sclera ([1]; 3 hr): 2.5 | Drug level in Vitreous ([1]; 3 hr): 0.5
